Source: paper PMC9486541, “Design, synthesis and cytotoxic evaluation of novel betulonic acid-diazine derivatives as potential antitumor agents” (Frontiers in Chemistry, 2022)

Key:
Hela cells = system: Hela cells; design: method as in list in b5; details: Figure 1, representative BoA derivatives; ref list in b5; cited from earlier work
DLD-1 cells = system: DLD-1 cells; design: method as in list in b5; details: Figure 1, representative BoA derivatives; ref list in b5; cited from earlier work
LNCaP cells = system: LNCaP cells; design: method as in list in b5; details: Figure 1, representative BoA derivatives; ref list in b5; cited from earlier work
SW872 = system: SW872; design: method as in list in b5; details: Figure 1, representative BoA derivatives; ref list in b5; cited from earlier work
G-361 cells = system: G-361 cells; design: method as in list in b5; details: Figure 1, representative BoA derivatives; ref list in b5; cited from earlier work
[1] = system: LNCaP prostate cancer cells; design: method as in Saxena et al., 2006; details: 100 μM; ref Saxena et al., 2006; cited from earlier work
[2] = system: normally proliferating fibroblast cells; design: method as in Saxena et al., 2006; details: ref Saxena et al., 2006; cited from earlier work
HepG2 = experiment: MTT assay, HepG2 cells; assay type: cell-based, human; details: Homo sapiens, HepG2, 72 h incubation, read-out: Half maximal inhibitory concentration (IC50) values, HepG2
Excerpt: (§1) The human hepatocellular carcinoma cell line (HepG2), human hepatocellular carcinoma cell line (Bel-7402), human cervical cancer cell line (Hela), human breast adenocarcinoma cell line (MCF-7) and Madin-Darby canine kidney cell line (MDCK) were obtained from the Chinese Academy of Medical Sciences and Peking Union Medical College. Cultures were maintained as monolayer in RPMI-1640/DMEM supplemented with 10% (v/v) fetal bovine serum (FBS) and 1% (v/v) penicillin/streptomycin (Thermo Technologies, New York, NY, United States) under a humidified atmosphere containing 5% CO2 at 37°C. The BoA derivatives and positive control drugs (BoA and DDP) under study were dissolved in DMSO (Sigma, St. Louis, MO, United States) and added at required concentrations to the cell culture. Cells incubated without the preparations served as the control.
(§2) The antitumor activity was assessed by MTT assay, as previously reported ([Fang et al., 2018]). Each tested compound and positive control drugs were dissolved in DMSO and diluted with the medium to the test concentrations, and the final concentration of DMSO in the culture medium was controlled at less than 0.5% (v/v). Briefly, cells were cultured at 37°C and dispersed in replicates in 96-well plates with HepG2, Bel-7402, HeLa, MCF-7 and MDCK for 24 h. Fresh medium along with compounds (BoAA-BoAE, BoA2A-BoA2G, BoA3A-BoA3G, BoA4A-BoA4G) at different concentrations was then added to individual wells and incubated for 72 h, with BoA and DDP as the positive control. Experiments on FXR expression were separated into three groups: Control (PBS), BoA2C (8 μM), and BoA2C (8 μM) + DY268 (10 μM) ([Giordano et al., 2016]), with three repeating wells in each. In separate wells, BoA2C and DY268 were introduced and cultured for 72 h. After 72 h, the cell was incubated with MTT solution (0.5 mg/ml) for an additional 4 h at 37°C. The produced formazan crystals were solubilized with DMSO, and the optical density of solution was measured at 570 nm using a plate reader (BIORAD 550 spectrophotometer, Bio-rad Life Science Development Ltd., Beijing, China). Wells without drugs were used to be blanks. The IC50 values were defined as the concentration of compounds that produced a 50% proliferation inhibition of surviving cells and calculated using the Graph Pad Prism 5. The inhibitory rate was calculated in the following Equation 1, where OD is the optical density: % inhibition=[1−(OD Sample group−OD Blank group)/(OD Control group−OD Blank group)]×100% (1)

Bel-7402 = experiment: MTT assay, Bel-7402 cells; assay type: cell-based, human; details: Homo sapiens, Bel-7402, 72 h incubation, read-out: Half maximal inhibitory concentration (IC50) values, Bel-7402
Excerpt: as §1, §2

Hela = experiment: MTT assay, Hela cells; assay type: cell-based, human; details: Homo sapiens, HeLa, 72 h incubation, read-out: Half maximal inhibitory concentration (IC50) values, Hela
Excerpt: as §1, §2

MCF-7 = experiment: MTT assay, MCF-7 cells; assay type: cell-based, human; details: Homo sapiens, MCF7, 72 h incubation, read-out: Half maximal inhibitory concentration (IC50) values, MCF-7
Excerpt: as §1, §2

MDCK = experiment: MTT assay, MDCK normal cell line; assay type: cell-based, canine; details: Canis lupus familiaris, MDCK, 72 h incubation, normal cell line, read-out: Half maximal inhibitory concentration (IC50) values, MDCK
Excerpt: as §1, §2

HCT-116 cells = system: HCT-116 cells; design: method as in list in b5; details: Figure 1, representative BoA derivatives; ref list in b5; cited from earlier work
[3] = system: MCF-7 breast cancer cells; experiment: MTT cell proliferation with FXR antagonist DY268; assay type: cell-based, human; details: MCF-7, BoA2C (8 μM) + DY268 (10 μM), 24, 48 and 72 h
Protocol: as §2, with “In separate wells, BoA2C and DY268 were introduced and cultured for 72 h.” left out, “The inhibitory rate was calculated in the following Equation 1, where OD is the optical density: % inhibition=[1−(OD Sample group−OD Blank group)/(OD Control group−OD Blank group)]×100% (1)” left out

A375 cells = system: A375 cells; design: method as in list in b5; details: Figure 1, representative BoA derivatives; ref list in b5; cited from earlier work

SMILES: C=C(C)[C@@H]1CC[C@]2(C(=O)OCCN3CCNCC3)CC[C@]3(C)C(CCC4[C@@]5(C)CC[C@H](O)C(C)(C)C5CC[C@]43C)C12 (stereo partly shown) [Compound 4]
- IC50 (Hela cells): 2.05 µM

SMILES: C=C(C)C1CCC2(COC(C)=O)CCC3(C)C(CCC4C5(C)CCC(OC6OC(CO)C(O)C(O)C6O)C(C)(C)C5CCC43C)C12 (stereo not shown) [Compound 6]
- IC50 (DLD-1 cells): 4.45 µM

SMILES: C=C(C)C1CC[C@]2(C(=O)NCCCCC(NC(=O)OC(C)(C)C)C(=O)O)CC[C@]3(C)[C@H](CC[C@@H]4[C@@]5(C)CCC(=O)C(C)(C)[C@@H]5CC[C@]43C)[C@@H]12 (stereo partly shown) [Compound 1]
- IC50 (LNCaP cells): 10 µM

SMILES: C=C(C)[C@@H]1CC[C@]2(C(=O)OCC(N)(CO)CO)CC[C@]3(C)[C@H](CC[C@@H]4[C@@]5(C)CC[C@H](OC(C)=O)C(C)(C)[C@@H]5CC[C@]43C)[C@@H]12 [Compound 7]
- IC50 (SW872): 1.8 µM

SMILES: C=C(C)C1CCC2(C(=O)OC3OC(COC(C)=O)C(OC(C)=O)C(OC(C)=O)C3OC(C)=O)CCC3(C)C(CCC4C5(C)CCC(O)C(C)(C)C5CCC43C)C12 (stereo not shown) [Compound 2]
- IC50 (G-361 cells): 3.4 µM

SMILES: C=C(C)C1CC[C@]2(C(=O)NCCCCC(NC(=O)OC(C)(C)C)C(=O)O)CC[C@]3(C)[C@H](CC[C@@H]4[C@@]5(C)CCC(=O)C(C)(C)[C@@H]5CC[C@]43C)[C@@H]12 (stereo partly shown) [boc-lysinated-betulonic acid]
- inhibition of LNCaP prostate cancer cells [1]: 95.7%
- effect on normally proliferating fibroblast cells [2]: little effect on normally proliferating fibroblast cells

SMILES: C=C(C)[C@@H]1CC[C@]2(C(=O)OCc3nccnc3C)CC[C@]3(C)[C@H](CC[C@@H]4[C@@]5(C)CCC(=O)C(C)(C)[C@@H]5CC[C@]43C)[C@@H]12 [BoAB, (3-Methylpyrazin-2-yl)-methyl-3-oxolup-20(29)-en-28-oate]
- IC50 (HepG2): 11.1 ± 0.27 µM
- IC50 (Bel-7402): 7.73 ± 1.92 µM
- IC50 (Hela): 11.8 ± 0.58 µM
- IC50 (MCF-7): 10 ± 0.26 µM
- IC50 (MDCK): > 30 µM
- melting point: 80 to 82 °C

SMILES: C=C(C)[C@@H]1CC[C@]2(C(=O)OCCOC(=O)c3cnccn3)CC[C@]3(C)[C@H](CC[C@@H]4[C@@]5(C)CCC(=O)C(C)(C)[C@@H]5CC[C@]43C)[C@@H]12 [BoA2A, (Pyrazin-2-acyloxy)-ethyl-3-oxolup-20(29)-en-28-oate]
- IC50 (HepG2): 13.7 ± 0.25 µM
- IC50 (Bel-7402): 8.76 ± 0.84 µM
- IC50 (Hela): 25 ± 0.97 µM
- IC50 (MCF-7): 9.86 ± 0.36 µM
- IC50 (MDCK): > 30 µM
- melting point: 85 to 87 °C

SMILES: C=C(C)[C@@H]1CC[C@]2(C(=O)OCCCOC(=O)c3cncc(C)n3)CC[C@]3(C)[C@H](CC[C@@H]4[C@@]5(C)CCC(=O)C(C)(C)[C@@H]5CC[C@]43C)[C@@H]12 [BoA3D, (6-Methylpyrazin-2-acyloxy)-propyl-3-oxolup-20(29)-en-28-oate]
- IC50 (HepG2): 8.65 ± 0.6 µM
- IC50 (Bel-7402): 6.42 ± 0.66 µM
- IC50 (Hela): 9.5 ± 0.28 µM
- IC50 (MCF-7): 5.6 ± 0.25 µM
- IC50 (MDCK): 17 ± 3.01 µM
- melting point: 59 to 60 °C

SMILES: C=C(C)C1CCC2(C(=O)O)CCC3(C)C(CCC4C5(C)CC(=Cc6ccc([N+](=O)[O-])cc6)C(O)C(C)(C)C5CCC43C)C12 (stereo not shown) [Compound 5]
- IC50 (HCT-116 cells): 1.36 µM

SMILES: C=C(C)[C@@H]1CC[C@]2(C(=O)OCCCOC(=O)c3nccnc3C)CC[C@]3(C)[C@H](CC[C@@H]4[C@@]5(C)CCC(=O)C(C)(C)[C@@H]5CC[C@]43C)[C@@H]12 [BoA3B, (3-Methylpyrazin-2-acyloxy)-propyl-3-oxolup-20(29)-en-28-oate]
- IC50 (HepG2): 13.2 ± 1.2 µM
- IC50 (Bel-7402): 14.2 ± 2.1 µM
- IC50 (Hela): 15.7 ± 2.15 µM
- IC50 (MCF-7): 27.9 ± 1.06 µM
- IC50 (MDCK): > 30 µM
- melting point: 54 to 55 °C

SMILES: COc1cccc(Cn2cc(C(=O)Nc3ccc(C)c(S(=O)(=O)N4CCOCC4)c3)c(-c3ccc(C)cc3)n2)c1 [DY268]
- effect of DY268 on BoA2C antiproliferative activity [3]: reversed BoA2C inhibitory impact on the growth of MCF-7 breast cancer cells

SMILES: C=C(C)[C@@H]1CC[C@]2(C(=O)Nc3cncc4ccccc34)CC[C@]3(C)C(CCC4[C@@]5(C)CC[C@H](OC(C)=O)C(C)(C)C5CC[C@]43C)C12 (stereo partly shown) [Compound 3]
- IC50 (A375 cells): 1.48 µM

SMILES: C=C(C)[C@@H]1CC[C@]2(C(=O)OCCCOC(=O)c3cnccn3)CC[C@]3(C)[C@H](CC[C@@H]4[C@@]5(C)CCC(=O)C(C)(C)[C@@H]5CC[C@]43C)[C@@H]12 [BoA3A, (Pyrazin-2-acyloxy)-propyl-3-oxolup-20(29)-en-28-oate]
- IC50 (HepG2): 4.82 ± 0.3 µM
- IC50 (Bel-7402): 6.09 ± 0.12 µM
- IC50 (Hela): 20.4 ± 0.56 µM
- IC50 (MCF-7): 6.85 ± 1.82 µM
- IC50 (MDCK): > 30 µM
- melting point: 74 to 76 °C

SMILES: C=C(C)[C@@H]1CC[C@]2(C(=O)OCCCOC(=O)c3cnc(C)cn3)CC[C@]3(C)[C@H](CC[C@@H]4[C@@]5(C)CCC(=O)C(C)(C)[C@@H]5CC[C@]43C)[C@@H]12 [BoA3C, (5-Methylpyrazin-2-acyloxy)-propyl-3-oxolup-20(29)-en-28-oate]
- IC50 (HepG2): > 30 µM
- IC50 (Bel-7402): 9.37 ± 1.31 µM
- IC50 (Hela): 30 ± 2.65 µM
- IC50 (MCF-7): 10 ± 0.19 µM
- IC50 (MDCK): > 30 µM
- melting point: 57 to 58 °C
